Values quoted from earlier work in patent publication US20030133903A1, “Compositions for treatment of prostate cancers and methods of making and using the same” (priority 2001, published 2003).

System: LNCaP cell line
Details: already published reports

IC50: low nM or sub nM
SMILES: CC(=O)O[C@H]1C(=O)[C@@]2(C)[C@H]([C@H](OC(=O)c3ccccc3)[C@]3(O)C[C@H](OC(=O)[C@H](O)[C@@H](NC(=O)c4ccccc4)c4ccccc4)C(C)=C1C3(C)C)[C@]1(OC(C)=O)CO[C@@H]1C[C@@H]2O [paclitaxel]
